Columns and labels:
[1] = target: cGMP-specific 3',5'-cyclic phosphodiesterase (Homo sapiens, UniProt O76074); test: DRUGMATRIX: Phosphodiesterase PDE5 enzyme inhibition (substrate: [3H]cGMP + cGMP); format: tissue-based, Platelet; conditions: platelet; Not Active = under 50% inhibition at 10 µM
[2] = target: C-C chemokine receptor type 2 (Homo sapiens, UniProt P41597); format: cell membranes, Membrane; conditions: cho-k1; also: in other assays of this panel Not Active means under 50% inhibition at 10 µM
C-C chemokine receptor type 2, sequence (P41597 whole entry): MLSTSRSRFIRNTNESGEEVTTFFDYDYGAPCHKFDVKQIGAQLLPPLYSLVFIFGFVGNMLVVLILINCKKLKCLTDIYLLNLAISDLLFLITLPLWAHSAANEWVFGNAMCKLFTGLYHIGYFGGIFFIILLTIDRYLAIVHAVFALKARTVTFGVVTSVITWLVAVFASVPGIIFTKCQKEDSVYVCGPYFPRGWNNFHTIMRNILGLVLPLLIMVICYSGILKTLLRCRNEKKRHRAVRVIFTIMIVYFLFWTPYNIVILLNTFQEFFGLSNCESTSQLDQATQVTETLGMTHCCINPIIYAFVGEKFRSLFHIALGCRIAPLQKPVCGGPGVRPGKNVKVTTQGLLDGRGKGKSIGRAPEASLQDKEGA

[3] = target: T1, Cysteinyl leukotriene receptor 1 (Homo sapiens, UniProt Q9Y271); format: cell membranes, Membrane; conditions: cho-k1; also: in other assays of this panel Not Active means under 50% inhibition at 10 µM
T1 sequence (Q9Y271 whole entry): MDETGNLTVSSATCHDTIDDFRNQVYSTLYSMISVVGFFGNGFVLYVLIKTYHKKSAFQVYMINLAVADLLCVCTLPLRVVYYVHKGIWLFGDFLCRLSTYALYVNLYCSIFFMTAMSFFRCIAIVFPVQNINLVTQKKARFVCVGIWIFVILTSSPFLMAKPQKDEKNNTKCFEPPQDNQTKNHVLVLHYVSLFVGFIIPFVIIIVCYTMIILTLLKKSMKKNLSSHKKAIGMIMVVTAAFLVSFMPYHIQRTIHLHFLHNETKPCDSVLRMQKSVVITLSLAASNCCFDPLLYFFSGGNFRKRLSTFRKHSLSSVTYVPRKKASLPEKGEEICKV

Acetylcholinesterase = Acetylcholinesterase (Homo sapiens, UniProt P22303); test: DRUGMATRIX: Acetylcholinesterase enzyme inhibition (substrate: acetylthiocholine); format: cell-based, HEK293; conditions: hek293; Not Active = under 50% inhibition at 10 µM
Acetylcholinesterase, sequence (P22303 whole entry): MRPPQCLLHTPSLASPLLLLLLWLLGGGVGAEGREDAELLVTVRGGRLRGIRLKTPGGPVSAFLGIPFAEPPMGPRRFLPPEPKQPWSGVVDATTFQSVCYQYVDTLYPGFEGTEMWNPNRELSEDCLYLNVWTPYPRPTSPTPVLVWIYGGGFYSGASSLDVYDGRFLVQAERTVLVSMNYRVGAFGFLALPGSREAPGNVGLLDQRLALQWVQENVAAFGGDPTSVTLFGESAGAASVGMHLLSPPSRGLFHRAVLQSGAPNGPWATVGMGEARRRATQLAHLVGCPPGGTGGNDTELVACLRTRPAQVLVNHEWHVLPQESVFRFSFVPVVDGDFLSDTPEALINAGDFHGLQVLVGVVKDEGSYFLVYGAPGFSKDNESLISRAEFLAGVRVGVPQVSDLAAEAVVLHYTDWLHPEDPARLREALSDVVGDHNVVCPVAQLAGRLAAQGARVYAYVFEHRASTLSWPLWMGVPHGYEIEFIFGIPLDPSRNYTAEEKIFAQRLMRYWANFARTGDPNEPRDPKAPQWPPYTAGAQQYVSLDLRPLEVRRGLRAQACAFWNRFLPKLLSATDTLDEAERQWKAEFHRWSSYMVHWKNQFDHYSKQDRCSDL

[4] = target: T2, C-X-C chemokine receptor type 2 (Homo sapiens, UniProt P25025); format: cell membranes, Membrane; conditions: cho-k1; also: in other assays of this panel Not Active means under 50% inhibition at 10 µM
T2 sequence (P25025 whole entry): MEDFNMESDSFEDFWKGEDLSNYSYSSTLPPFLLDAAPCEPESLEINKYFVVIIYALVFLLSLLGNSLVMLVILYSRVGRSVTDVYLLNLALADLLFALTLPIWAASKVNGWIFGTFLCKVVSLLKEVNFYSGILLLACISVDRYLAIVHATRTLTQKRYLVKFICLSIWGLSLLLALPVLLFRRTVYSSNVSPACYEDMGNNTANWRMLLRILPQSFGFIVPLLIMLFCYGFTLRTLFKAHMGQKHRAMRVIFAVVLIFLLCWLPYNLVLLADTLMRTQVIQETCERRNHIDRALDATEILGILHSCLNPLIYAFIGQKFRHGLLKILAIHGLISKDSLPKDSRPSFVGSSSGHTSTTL

[5] = target: T3, 5-hydroxytryptamine receptor 2C (Homo sapiens, UniProt P28335); test: DRUGMATRIX: Serotonin (5-Hydroxytryptamine) 5-HT2C radioligand binding (ligand: [3H] Mesulergine); format: cell membranes, CHO-K1, Membrane; conditions: cho-k1; Not Active = under 50% inhibition at 10 µM
T3 sequence (P28335 whole entry): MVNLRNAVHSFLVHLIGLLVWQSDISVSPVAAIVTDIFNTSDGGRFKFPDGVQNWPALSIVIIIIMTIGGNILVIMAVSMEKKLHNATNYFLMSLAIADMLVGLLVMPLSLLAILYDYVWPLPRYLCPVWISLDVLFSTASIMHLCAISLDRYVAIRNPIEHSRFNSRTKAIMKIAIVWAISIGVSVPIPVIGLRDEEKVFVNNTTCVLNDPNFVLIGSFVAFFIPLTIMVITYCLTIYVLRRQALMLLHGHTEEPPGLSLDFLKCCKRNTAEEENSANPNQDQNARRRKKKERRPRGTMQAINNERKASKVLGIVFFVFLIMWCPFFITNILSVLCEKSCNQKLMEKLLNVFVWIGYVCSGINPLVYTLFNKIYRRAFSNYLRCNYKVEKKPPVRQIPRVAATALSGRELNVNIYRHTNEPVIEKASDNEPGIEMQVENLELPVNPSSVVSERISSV

Substance-K receptor = target: T4, Substance-K receptor (Homo sapiens, UniProt P21452); format: cell membranes, CHO, Membrane; conditions: cho; also: in other assays of this panel Not Active means under 50% inhibition at 10 µM
T4 sequence (P21452 whole entry): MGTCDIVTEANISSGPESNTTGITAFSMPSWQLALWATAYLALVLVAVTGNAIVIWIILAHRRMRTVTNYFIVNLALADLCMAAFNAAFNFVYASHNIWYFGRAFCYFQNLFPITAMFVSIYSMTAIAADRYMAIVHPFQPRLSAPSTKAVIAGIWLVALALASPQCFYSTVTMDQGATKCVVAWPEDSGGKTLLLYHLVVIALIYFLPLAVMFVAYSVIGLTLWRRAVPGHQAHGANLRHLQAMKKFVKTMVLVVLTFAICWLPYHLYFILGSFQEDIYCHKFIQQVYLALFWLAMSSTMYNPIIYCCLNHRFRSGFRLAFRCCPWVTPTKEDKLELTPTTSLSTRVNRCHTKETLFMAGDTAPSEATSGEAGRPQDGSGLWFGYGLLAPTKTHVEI

ZIRCONIUM(IV) CHLORIDE
Not Active: IC50 [1] | Ki [1] | IC50 [2] | Ki [2] | IC50 [3] | Ki [3] | IC50 (Acetylcholinesterase) | Ki (Acetylcholinesterase) | IC50 [4] | Ki [4] | IC50 [5] | Ki [5] | IC50 (Substance-K receptor) | Ki (Substance-K receptor)

— ChEMBL document CHEMBL1909046, “DrugMatrix in vitro pharmacology data”
